Data published in patent US9650382B2, “Heteroarylamide derivatives having antiandrogenic properties” (MEDEIA THERAPEUTICS LTD, priority 2012, dated 2017).
Substitutions are numbered along the chain they refer to.

How the values were obtained:
Format in all cases: cell-based
WT AR = target: T1, WT AR (Homo sapiens, UniProt P10275); test: Antagonism in WT AR, AR transactivation reporter gene assay (COS-1 cells, or INDIGO Human AR Reporter Assay System), competitive setting with reference agonist; details: for activity at 1 µM / activity at 10 µM: COS-1, read-out: Relative LUC activity (%) indicating residual androgen activity in relation to reference agonist (100%); for Relative LUC activity (%) indicating residual androgen activity in relation to reference agonist (100%): competitive setting with reference agonist (50 nM testosterone or 400 pM FIT)
T1 construct: expressed in transfected cells; host or cells: COS-1 cells (transient transfection); alternatively non-human mammalian cells of the INDIGO Biosciences Human AR Reporter Assay System
T1 sequence (P10275 1-920): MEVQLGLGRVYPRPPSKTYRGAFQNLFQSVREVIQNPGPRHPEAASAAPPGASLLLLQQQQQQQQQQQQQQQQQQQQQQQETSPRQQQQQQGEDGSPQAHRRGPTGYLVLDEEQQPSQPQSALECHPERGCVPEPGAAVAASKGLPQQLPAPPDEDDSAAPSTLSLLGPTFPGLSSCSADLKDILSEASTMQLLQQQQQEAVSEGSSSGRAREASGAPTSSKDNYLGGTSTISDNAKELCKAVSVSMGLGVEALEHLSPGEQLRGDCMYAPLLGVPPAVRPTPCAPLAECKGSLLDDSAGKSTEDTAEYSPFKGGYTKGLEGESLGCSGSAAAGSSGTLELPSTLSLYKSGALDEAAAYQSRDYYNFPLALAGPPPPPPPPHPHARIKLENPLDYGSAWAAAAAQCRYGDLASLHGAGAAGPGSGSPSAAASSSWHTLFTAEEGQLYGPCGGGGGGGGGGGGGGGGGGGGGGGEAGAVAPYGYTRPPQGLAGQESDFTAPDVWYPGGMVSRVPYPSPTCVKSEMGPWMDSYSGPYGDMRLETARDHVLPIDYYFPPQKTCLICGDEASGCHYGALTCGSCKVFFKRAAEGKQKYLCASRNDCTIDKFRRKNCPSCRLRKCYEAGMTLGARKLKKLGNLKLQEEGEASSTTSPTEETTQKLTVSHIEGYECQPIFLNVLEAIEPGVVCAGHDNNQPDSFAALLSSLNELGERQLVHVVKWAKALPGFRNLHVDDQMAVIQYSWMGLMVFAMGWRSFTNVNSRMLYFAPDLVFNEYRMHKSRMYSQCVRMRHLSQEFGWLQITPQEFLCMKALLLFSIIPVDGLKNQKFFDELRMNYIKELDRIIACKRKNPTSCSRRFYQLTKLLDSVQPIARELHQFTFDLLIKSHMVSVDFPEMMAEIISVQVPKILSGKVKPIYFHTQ
Procedure: After 18 h, reporter gene activities (LUC and beta-galactosidase) were determined according to standard methods. The data are expressed as relative LUC activity (luciferase light units divided by beta-galactosidase A420nm to control for transfection efficiency) of a given compound in relation to the activity of a reference test item (=100%).
Alternatively, commercial Human AR Reporter Assay System (INDIGO Biosciences) was used. In this assay, non-human mammalian cells are engineered to express human WT AR together with LUC reporter gene linked to AR-responsive promoter. 400 pM 6-alpha-FI testosterone, FIT, was used as a reference agonist in a competitive setting.
Antagonism in WT AR of compounds of the present invention was measured in AR transactivation assay in COS-1 cells in competitive setting using testosterone as a reference agonist as described above. Alternatively INDIGO Bioscience's Human AR Reporter Assay System was utilized. […] Relative LUC activity representing AR-dependent transcription obtained by exposure to reference agonist alone was set to 100%.

W741L AR = target: T2, W741L AR (Homo sapiens, UniProt P10275, W742L); test: Agonism in W741L mutant AR, AR transactivation assay in COS-1 cells, test compounds alone; details: 10 microM; compound alone
T2 construct: expressed in transfected cells; host or cells: COS-1 cells
T2 sequence (P10275 1-920 W742L): T1 sequence (P10275 1-920) with W742L
Procedure: (§1) COS-1 cells (American Type Culture Collection, ATCC) were cultured in Dulbecco's Modified Eagle Medium (DMEM) supplemented with 10% fetal bovine serum (FBS), penicillin (6.25 U/ml) and streptomycin (6.25 μg/ml) and seeded onto 48-well plates (50 000 cells/well) one day before transfection. Transfection media containing 2.5% charcoal-stripped FBS in DMEM was changed on cells 4 h prior to transfection. Cells were transfected with 50 ng of luciferase (LUC) reporter gene plasmid (pPB-286/+32-LUC; PB, probasin promoter), 5 ng of AR expression plasmid (pSG5-hAR), and 5 ng of pCMVβ (an internal, beta-galactosidase control for transfection efficiency and cell growth) using TransIT-LT1 reagent (Mirus Bio Corporation) according to the manufacturer's instructions. […] After 18 h, reporter gene activities (LUC and beta-galactosidase) were determined according to standard methods. The data are expressed as relative LUC activity (luciferase light units divided by beta-galactosidase A420nm to control for transfection efficiency) of a given compound in relation to the activity of a reference test item (=100%).
(§2) Agonism in W741L AR of compounds of the present invention was measured in AR transactivation assay in COS-1 cells as described above except that AR expression vector harboring the W741L mutation was used instead of the WT AR. The transfected cells were exposed to test compounds alone.

T877A AR = target: T3, T877A AR (Homo sapiens, UniProt P10275, T878A); test: Agonism in T877A mutant AR, AR transactivation assay in COS-1 cells, test compounds alone; details: 10 microM; compound alone
T3 construct: expressed in transfected cells; host or cells: COS-1 cells
T3 sequence (P10275 1-920 T878A): T1 sequence (P10275 1-920) with T878A
Procedure: as §1
as §2, with “T877A” for “W741L”, “used.” for “used instead of the WT AR.”, “alone. Testosterone was used as reference agonist, and its' relative LUC activity representing AR-dependent transcription was set to 100%.” for “alone.”

CC(C)S(=O)(=O)CC(O)(C(=O)Nc1ccc(C#N)c(C(F)(F)F)c1)c1ccc(Cl)nc1 (stereo not shown) [Example 12, 2-(6-chloropyridin-3-yl)-N-[4-cyano-3-(trifluoromethyl)phenyl]-2-hydroxy-3-(propane-2-sulfonyl)propanamide]
activity at 1 µM (WT AR): 30% | activity at 10 µM (WT AR): 5% | Relative LUC activity (%) in W741L AR in relation to BIC (100%) (W741L AR): 3% | Relative LUC activity (%) in T877A AR in relation to testosterone (100%) (T877A AR): 4%

N#Cc1ccc(NC(=O)C(O)(CS(=O)(=O)Cc2ccc(Cl)cc2)c2ccc(Cl)nc2)cc1Cl (stereo not shown) [Example 8, N-(3-chloro-4-cyanophenyl)-3-{[(4-chlorophenyl)methane]sulfonyl}-2-(6-chloropyridin-3-yl)-2-hydroxypropanamide]
Relative LUC activity (%) indicating residual androgen activity in relation to reference agonist (100%) (WT AR; 1 microM compound): 32% | Relative LUC activity (%) indicating residual androgen activity in relation to reference agonist (100%) (WT AR; 10 microM compound): 4% | Relative LUC activity (%) in W741L AR in relation to BIC (100%) (W741L AR): 4% | Relative LUC activity (%) in T877A AR in relation to testosterone (100%) (T877A AR): 2%

N#Cc1ccc(NC(=O)C(O)(CS(=O)(=O)c2ccc(F)cc2)c2ccc(C(F)(F)F)nc2)cc1Cl (stereo not shown) [Example 15, N-(3-chloro-4-cyanophenyl)-3-(4-fluorobenzenesulfonyl)-2-hydroxy-2-[6-(trifluoromethyl)pyridin-3-yl]propanamide]
activity at 1 µM (WT AR): 25% | activity at 10 µM (WT AR): 3%

N#Cc1ccc(NC(=O)C(O)(CS(=O)(=O)c2ccc(Cl)cc2)c2ccc(Cl)nc2)cc1Cl (stereo not shown) [Example 9, N-(3-chloro-4-cyanophenyl)-3-[(4-chlorobenzene)sulfonyl]-2-(6-chloropyridin-3-yl)-2-hydroxypropanamide]
Relative LUC activity (%) indicating residual androgen activity in relation to reference agonist (100%) (WT AR; 1 microM compound): 25% | Relative LUC activity (%) indicating residual androgen activity in relation to reference agonist (100%) (WT AR; 10 microM compound): 13% | Relative LUC activity (%) in W741L AR in relation to BIC (100%) (W741L AR): 23% | Relative LUC activity (%) in T877A AR in relation to testosterone (100%) (T877A AR): 3%

CC(C)CCS(=O)(=O)CC(O)(C(=O)Nc1ccc(C#N)c(C(F)(F)F)c1)c1ccc(Cl)nc1 (stereo not shown) [Example 6, 2-(6-chloropyridin-3-yl)-N-[4-cyano-3-(trifluoromethyl)phenyl]-2-hydroxy-3-[(3-methylbutane)sulfonyl]propanamide]
Relative LUC activity (%) indicating residual androgen activity in relation to reference agonist (100%) (WT AR; 1 microM compound): 28% | Relative LUC activity (%) indicating residual androgen activity in relation to reference agonist (100%) (WT AR; 10 microM compound): 7% | Relative LUC activity (%) in W741L AR in relation to BIC (100%) (W741L AR): 31% | Relative LUC activity (%) in T877A AR in relation to testosterone (100%) (T877A AR): 4%

CCS(=O)(=O)CC(O)(C(=O)Nc1ccc(C#N)c(C(F)(F)F)c1)c1ccc(Cl)nc1 (stereo not shown) [Example 1, 2-(6-chloropyridin-3-yl)-N-[4-cyano-3-(trifluoromethyl)phenyl]-3-(ethanesulfonyl)-2-hydroxypropanamide]
activity at 1 µM (WT AR): 37% | activity at 10 µM (WT AR): 8% | Relative LUC activity (%) in W741L AR in relation to BIC (100%) (W741L AR): 6% | Relative LUC activity (%) in T877A AR in relation to testosterone (100%) (T877A AR): 13%
